According to US20110251379A1, “COMPOUNDS USEFUL FOR TREATING NEURODEGENERATIVE DISORDERS” (Satori Pharmaceuticals, Inc., priority 2010, published 2011):
Like-named read-outs stand apart in the source and are kept apart here.

How the values were obtained:
Type in all cases: cell-based
[1] = tested on: Aβ-38; experiment: MSD Human (6E10) Ab 3-PLEX elisa, conditioned media of 2B7 cells: Aβ-38; conditions: Homo sapiens, Aβ-38 (superscript a)
Description: (§1) Assays were conducted to determine the ability of a Compound of Formula I to modulate […], and Aβ-38.
(§2) Plates with capture antibodies were blocked for 1-2 hours at room temperature with 150 μL of the manufactures blocking reagent.
(§3) Conditioned Media: • Cultured 2B7 cells in 96 well plate with 250 uL of media per well until confluent; • Prepared serial dilutions of compounds in DMSO at 100× the final desired concentration; • Washed wells with 2B7 cells 1× with 250 uL of media; • Diluted DMSO stocks 1:100 into media: • Added 250 μL of media containing compounds (1% DMSO) to wells with 2B7 cells for 5 hours at 37° C.
(§4) Elisa Sample Prep: • Diluted conditioned media: 1 part media with 1% DMSO and 1 part blocking buffer; • 150 μL of the 250 μL of conditioned media were used.
(§5) […] CURVE SAMPLE PREP: Prepared per manufacturer's protocol (see above) • Seven point standard curve samples were prepared that contained Aβ-42, Aβ-40, and Aβ-38. The highest concentration of Aβ-42 and Aβ-3-38 was 3,000 pg/mL and the highest concentration of Aβ-40 was 10,000 pg/mL. Subsequent serial dilutions were 1:3 and the final composition of each sample was 1 part blocking buffer and 1 part cell medium containing 1% DMSO.
(§6) Overnight Sample Incubation: • Blocked plates are washed 5× with MSD wash buffer with a plate washer • 25 uL of detection antibody and blocker G reagent in MSD blocking solution is added • 25 uL of samples (1 part conditioned media containing 1% DMSO and 1 part MSD blocking buffer) are then added. • plates are incubated overnight at 4 degrees C. or 2 hours at room temp
(§7) Final Wash and Readout: • Wash wells 5× with MSD wash buffer • Added 150 μL 2×MSD read buffer • Read with MSD imager.
(§8) A-Beta peptide levels for each peptide are calculated from the standard curve using the MSD software provided with the MSD 2400 Imager. Percent vehicle values for each compound dosage were then calculated and fit to a 4 parameter curve generating IC50 values.

[2] = tested on: Aβ-40; experiment: MSD Human (6E10) Ab 3-PLEX elisa, conditioned media of 2B7 cells: Aβ-40; conditions: for IC50: Homo sapiens, Aβ-40 (superscript b)
Description: as §1, §2, §3, §4, §5, §6, §7, §8

[3] = tested on: Aβ-42; experiment: MSD Human (6E10) Ab 3-PLEX elisa, conditioned media of 2B7 cells: Aβ-42; conditions: Homo sapiens; for IC50: Aβ-42 (superscript c); for inhibition at 20 µM: Aβ-42, 20 μM
Description: as §1, §2, §3, §4, §5, §6, §7, §8

| SMILES | IC50 ([1]; read-out: 50% reduction value) | IC50 ([2]; read-out: 50% reduction value) | IC50 ([3]; read-out: 50% reduction value) | IC50 ([3]; read-out: IC50 range) | IC50 ([1]; read-out: IC50 range) | % Inh. (range) ([2]; Aβ-40, 20 μM) | IC50 ([2]; read-out: IC50 range) | inhibition at 20 µM [3] |
| --- | --- | --- | --- | --- | --- | --- | --- | --- |
| CCO[C@@H](C1C[C@@H](C)[C@H]2C(O1)[C@H](O)[C@@]1(C)C3CC[C@H]4C(C)(C)C(OC(=O)N5CC[C@@H](C(=O)O)C5)CC[C@@]45C[C@@]35CC[C@]21C)C(C)(C)O (stereo partly shown) | 1000 to 10000 nM | > 10000 nM | < 1000 nM | < 1000 nM |  |  |  |  |
| CCO[C@@H](C1C[C@@H](C)[C@H]2C(O1)[C@H](O)[C@@]1(C)C3CC[C@H]4C(C)(C)C(O[C@H]5CN(CCC(=O)O)CCO5)CC[C@@]45C[C@@]35CC[C@]21C)C(C)(C)O (stereo partly shown) | < 1000 nM | 1000 to 10000 nM | < 1000 nM | < 1000 nM |  |  |  |  |
| CCO[C@@H](C1C[C@@H](C)[C@H]2C(O1)[C@H](O)[C@@]1(C)C3CC[C@H]4C(C)(C)C(O[C@H]5CN(CCCC(=O)O)CCO5)CC[C@@]45C[C@@]35CC[C@]21C)C(C)(C)O (stereo partly shown) | 1000 to 10000 nM | 1000 to 10000 nM | < 1000 nM | < 1000 nM | 1000 to 10000 nM |  |  |  |
| CCO[C@@H](C1C[C@@H](C)[C@H]2C(O1)[C@H](O)[C@@]1(C)C3CC[C@H]4C(C)(C)C(O[C@H]5CN([C@@H](C)C(=O)O)CCO5)CC[C@@]45C[C@@]35CC[C@]21C)C(C)(C)O (stereo partly shown) | < 1000 nM | > 10000 nM | < 1000 nM | < 1000 nM |  |  |  |  |
| CCO[C@@H]([C@H]1C[C@@H](C)[C@H]2[C@H](O1)[C@H](O)[C@@]1(C)C3CC[C@H]4C(C)(C)C(OC(=O)N5CCC5)CC[C@@]45C[C@@]35CC[C@]21C)C(C)(C)O (stereo partly shown) | < 1000 nM |  | < 1000 nM | < 1000 nM | 1000 to 10000 nM | E/F^b (20 μM) |  |  |
| CCO[C@@H]([C@H]1C[C@@H](C)[C@H]2[C@H](O1)[C@H](O)[C@@]1(C)C3CC[C@H]4C(C)(C)C(OC(=O)NC5COC5)CC[C@@]45C[C@@]35CC[C@]21C)C(C)(C)O (stereo partly shown) | < 1000 nM | 1000 to 10000 nM | < 1000 nM | < 1000 nM |  |  |  |  |
| CCO[C@@H]([C@H]1C[C@@H](C)[C@H]2[C@H](O1)[C@H](O)[C@@]1(C)C3CC[C@H]4C(C)(C)C(OC(=O)NC5CNC5)CC[C@@]45C[C@@]35CC[C@]21C)C(C)(C)O (stereo partly shown) | < 1000 nM | 1000 to 10000 nM | < 1000 nM | < 1000 nM |  |  | > 10000 nM |  |
| CCS[C@@H](C1C[C@@H](C)C2C(O1)[C@H](O)[C@@]1(C)C3CC[C@H]4C(C)(C)C(O[C@H]5CN(C6COC6)CCO5)CC[C@@]45C[C@@]35CC[C@]21C)C(C)(C)O (stereo partly shown) | 1000 to 10000 nM | > 10000 nM |  |  |  |  |  | 25 to 75% |
| CC(C)OC(C)(C)[C@H](O)C1C[C@@H](C)[C@H]2C(O1)[C@H](O)[C@@]1(C)C3CC[C@H]4C(C)(C)C(O)CC[C@@]45C[C@@]35CC[C@]21C (stereo partly shown) | 1000 to 10000 nM | > 10000 nM |  |  |  |  |  | 25 to 75% |
| CCOC(C)(C)[C@H](O)C1C[C@@H](C)[C@H]2C(O1)[C@H](O)[C@@]1(C)C3CC[C@H]4C(C)(C)C(O)CC[C@@]45C[C@@]35CC[C@]21C (stereo partly shown) | 1000 to 10000 nM | > 10000 nM |  |  |  |  |  | < 25% |
| CC(C)C(=O)N1CCOC(OC2CC[C@]34C[C@]35CC[C@]3(C)[C@@H]6C(OC([C@H](OC(=O)N7CCC7)C(C)C)C[C@H]6C)[C@H](O)[C@@]3(C)C5CC[C@H]4C2(C)C)C1 (stereo partly shown) | < 1000 nM | 1000 to 10000 nM | < 1000 nM | < 1000 nM | < 1000 nM |  | > 10000 nM |  |
| CC(C)CC(=O)N1CCOC(OC2CC[C@]34C[C@]35CC[C@]3(C)[C@@H]6C(OC([C@H](OC(=O)N7CCC7)C(C)C)C[C@H]6C)[C@H](O)[C@@]3(C)C5CC[C@H]4C2(C)C)C1 (stereo partly shown) | 1000 to 10000 nM | 1000 to 10000 nM | 1000 to 10000 nM | 1000 to 10000 nM | 1000 to 10000 nM |  | 1000 to 10000 nM |  |
| CC(C)[C@@H](OC(=O)N1CCC1)C1C[C@@H](C)[C@H]2C(O1)[C@H](O)[C@@]1(C)C3CC[C@H]4C(C)(C)C(OC(=O)N5CC(NCC(F)(F)F)C5)CC[C@@]45C[C@@]35CC[C@]21C (stereo partly shown) | 1000 to 10000 nM | > 10000 nM | < 1000 nM |  |  |  |  |  |
